Literature values, collected in US20050065183A1 (priority 2003, published 2005).

Tested on: muscarinic

## CC(C)(C(=O)O)c1ccc(C(O)CCCN2CCC(C(O)(c3ccccc3)c3ccccc3)CC2)cc1 (stereo not drawn) [Fexofenadine, 4-[4-[4-(hydroxydiphenylmethyl)-1-piperidinyl]-1-hydroxybutyl]-α,α-dimethylbenzeneacetic acid]
  antimuscarinic activity: weak
